# Patent US9260418B2, “Pyranyl aryl methyl benzoquinolinone M1 receptor positive allosteric modulators” (Merck Sharp & Dohme Corp., priority 2009, dated 2016)
# Biological target: T1, acetylcholine muscarinic M1 receptor (Homo sapiens, UniProt P11229)
# T1 construct: expressed in transfected cells; host or cells: CHOnfat cells (CHO), under Geneticin selection; b382 calls them CHOK1/hM1
# T1 sequence (P11229 1-460): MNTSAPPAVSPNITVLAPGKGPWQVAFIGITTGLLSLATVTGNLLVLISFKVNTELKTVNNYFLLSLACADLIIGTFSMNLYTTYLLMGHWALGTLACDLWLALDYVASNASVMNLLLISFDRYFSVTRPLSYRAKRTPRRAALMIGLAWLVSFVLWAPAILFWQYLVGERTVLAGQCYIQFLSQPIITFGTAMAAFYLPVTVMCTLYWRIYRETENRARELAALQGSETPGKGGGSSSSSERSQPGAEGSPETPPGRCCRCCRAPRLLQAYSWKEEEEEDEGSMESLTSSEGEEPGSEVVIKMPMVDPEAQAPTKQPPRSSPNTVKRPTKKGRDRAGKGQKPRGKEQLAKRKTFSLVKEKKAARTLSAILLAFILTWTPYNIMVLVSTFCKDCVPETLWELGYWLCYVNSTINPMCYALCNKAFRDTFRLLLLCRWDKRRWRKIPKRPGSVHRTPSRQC
# Assay: muscarinic FLIPR intracellular calcium assay, potentiation of EC20 acetylcholine in CHOnfat/hM1 cells
# Format: cell-based
# Details: inflection point calculated from FLIPR values, 4 min preincubation, then EC20 acetylcholine (3 nM final), read-out: IP Value
# Experimental: The assay studies the effect of one or several concentrations of test compounds on basal or acetylcholine-stimulated Ca^2+ levels using FLIPR.
# Compounds are prepared and subjected to a preincubation period of 4 min. Thereafter, a single EC20 concentration of acetylcholine is added to each well (3 nM final). The intracellular Ca^2+ level of each sample is measured and compared to an acetylcholine control to determine any modulatory activity.
# Cells: CHOnfat/hM1, hM2, hM3 or hM4 cells are plated 24 hr before the assay at a density of 18,000 cells/well (100 μL) in a 384 well plate. CHOnfat/hM1 and CHOnfat/hM3 Growth Medium: 90% DMEM (Hi Glucose); 10% HI FBS; 2 mM L-glutamine; 0.1 mM NEAA; Pen-Strep; and 1 mg/ml Geneticin, are added. For M2Gqi5CHOnfat and M4Gqi5CHOnfat cells, an additional 600 ug/ml hygromycin is added.
# Equipment: 384 well plate, 120 μL addition plate; 96-well Whatman 2 ml Uniplate Incubator, 37° C., 5% CO2; Skatron EMBLA-384 Plate Washer; Multimek Pipetting System; Genesis Freedom 200 System; Mosquito System; Temo Nanolitre Pipetting System; and FLIPR^384 Fluorometric Imaging Plate Reader System are used.
# Buffers. Assay Buffer: Hanks Balanced Salt Solution, with 20 mM Hepes, 2.5 mM Probenecid (Sigma P-8761) first dissolved in 1 N NaOH, 1% Bovine Serum Albumin (Sigma A-9647). Dye Loading Buffer: Assay Buffer plus 1% Fetal Bovine Serum and Fluo-4AM/Pluronic Acid Mixture. 2 mM Fluo-4AM ester stock in DMSO (Molecular Probes F-14202) Concentration of 2 μM in buffer for a final concentration of 1 μM in Assay. 20% Pluronic Acid Solution stock, with concentration of 0.04% in Buffer, 0.02% in Assay.
# 65 μL of 2 mM Fluo-4AM are mixed with 130 μL of 20% Pluronic Acid. The resulting solution and 650 μL FBS is added to the assay buffer for a total volume of 65 mL. Positive Controls: 4-Br-A23187: 10 mM in DMSO; final concentration 10 μM. Acetylcholine: 10 mM in water, working stock at both 20 μM and 30 μM in assay buffer, final concentration of 10 μM. This is used to check the maximum stimulation of the CHOK1/hM1 cells. 20 μM (2×) acetylcholine is added in the preincubation part of the assay, and the 30 μM (3×) stock is added in the second part. (EC20)Acetylcholine: 10 mM in water, working stock of 9 nM (3×), and final concentration in assay is 3 nM. This is used after the preincubation with test compounds. Addition of the EC20 Acetylcholine to each well with a test compound will ascertain any modulator activity. 24 wells contain 3 nM Acetylcholine alone as a control.
# Screening Plate: Compounds are titrated in 96-well plates (columns 2-11), 100% DMSO, started at a concentration of 15 mM (150× stock concentration), and 3-fold serial dilutions using Genesis Freedom200 System. Four 96-well plates are combined into a 384-well plate using Mosquito Nanolitre Pipetting System by transferring 1 μl of serial diluted compounds to each well, and 1 mM acetylcholine (100× stock concentration) were added as a control. Using Temo, 49 μl assay buffer is added to each well of the 384-well plate right before assay.
# In a 96-well Whatman 2 ml Uniplate, 9 nM Acetylcholine (3×) is pipetted into wells corresponding to the screening compounds, and into control wells. The 30 μM acetylcholine control (3×) is added into control wells, and the 3× agonist plate is transferred into a 384 well plate.
# Cells are washed three times with 100 μL of buffer, leaving 30 μL of buffer in each well. Using Multimek, 30 μL of Dye Loading Buffer is added into each well and incubated at 37° C., 5% CO2 for up to one hr.
# After 60 min, the cells are washed three times with 100 μL of buffer, leaving 30 μL of buffer in each well. The cell plate, screening plate, and agonist addition plates are placed on the platform in the FLIPR and the door closed. A signal test to check background fluorescence and basal fluorescence signal is performed. Laser intensity is adjusted if necessary. […]
row,SMILES,EC50 [nM]
1,"O=c1c2cc(Cc3ccc(Cl)nc3)c3ccccc3c2ncn1[C@H]1CCNC[C@@H]1O (racemic) [Example 35, rac-6-[(6-Chloropyridin-3-yl)methyl]-3-[(3R,4R)-3-hydroxypiperidin-4-yl]benzo[h]quinazolin-4(3)H-one]",54
2,"Cn1cc(-c2ccc(Cc3cc4c(=O)n([C@H]5CCOC[C@@H]5O)cnc4c4ccccc34)cn2)cn1 [Example 4, 3-[(3R,4S)-3-Hydroxytetrahydro-2H-pyran-4-yl]-6-{[6-(1-methyl-1H-pyrazol-4-yl)pyridine-3-yl]methyl}benzo[h]quinazolin-4(3H)-one]",2.5
3,"O=c1c2cc(Cc3ccc(-n4cccn4)nc3)c3ccccc3c2ncn1[C@H]1CCOC[C@@H]1O [Example 5, 3-[(3R,4S)-3-Hydroxytetrahydro-2H-pyran-4-yl]-6-{[6-(1H-pyrazol-1-yl)pyridine-3-yl]methyl}benzo[h]quinazolin-4(3H)-one]",15
4,O=c1c2cc(Cc3cccnc3)c3ccccc3c2ncn1[C@H]1CCOC[C@@H]1O [Example 6],23
5,"COc1ccc(Cc2cc3c(=O)n([C@H]4CCOC[C@@H]4O)cnc3c3ccccc23)cn1 [Example 7, 3-[(3R,4S)-3-Hydroxytetrahydro-2H-pyran-4-yl]-6-[(6-methoxypyridin-3-yl)methyl]benzo[h]quinazolin-4(3H)-one]",16.8
6,"N#Cc1ccc(Cc2cc3c(=O)n([C@H]4CCOC[C@@H]4O)cnc3c3ccccc23)cn1 [Example 8, 5-({3-[(3R,4S)-3-Hydroxytetrahydro-2H-pyran-4-yl]-4-oxo-3,4-dihydrobenzo[h]quinazolin-6-yl}methyl)pyridine-2-carbonitrile]",31
7,"CCc1ccc(Cc2cc3c(=O)n([C@H]4CCOC[C@@H]4O)cnc3c3ccccc23)cn1 [Example 9, 6-[(6-Ethylpyridin-3-yl)methyl]-3-[(3R,4S)-3-hydroxytetrahydro-2H-pyran-4-yl]benzo[h]quinazolin-4(3H)-one]",16
8,"O=c1c2cc(Cc3ccc(Cl)[n+]([O-])c3)c3ccccc3c2ncn1[C@H]1CCOC[C@@H]1O [Example 14, 6-[(6-Chloro-1-oxidopyridin-3-yl)methyl]-3-[(3R,4S)-3-hydroxytetrahydro-2H-pyran-4-yl]benzo[h]quinazolin-4(3H)-one]",59
9,"O=c1c2cc(Cc3ccnc(Cl)c3)c3ccccc3c2ncn1[C@H]1CCOC[C@@H]1O [Example 15, 6-[(2-Chloropyridin-4-yl)methyl]-3-[(3R,4S)-3-hydroxytetrahydro-2H-pyran-4-yl]benzo[h]quinazolin-4(3H)-one]",12
10,"CS(=O)(=O)c1ccc(Cc2cc3c(=O)n([C@H]4CCOC[C@@H]4O)cnc3c3ccccc23)cn1 [Example 16, 3-[(3R,4S)-3-Hydroxytetrahydro-2H-pyran-4-yl]-6-{[6-(methylsulfonyl)pyridine-3-yl]methyl}benzo[h]quinazolin-4(3H)-one]",53
11,"O=C(O)c1ccc(Cc2cc3c(=O)n([C@H]4CCOC[C@@H]4O)cnc3c3ccccc23)cn1 [Example 18, 5-({3-[(3R,4S)-3-Hydroxytetrahydro-2H-pyran-4-yl]4-oxo-3,4-dihydrobenzo[h]quinazolin-6-yl}methyl)pyridine-2-carboxylic acid]",124
12,"CN(C)C(=O)c1ccc(Cc2cc3c(=O)n([C@H]4CCOC[C@@H]4O)cnc3c3ccccc23)cn1 [Example 19, 5-({3-[(3R,4S)-3-Hydroxytetrahydro-2H-pyran-4-yl]-4-oxo-3,4-dihydrobenzo[h]quinazolin-6-yl}methyl)-N,N-dimethylpyridine-2-carboxamide]",318

# Further compounds by falling EC50, results first:
row,EC50 [nM],SMILES
1,120,"CC(=O)N1CC[C@H](n2cnc3c(cc(Cc4ccc(Cl)nc4)c4ccccc43)c2=O)[C@@H](O)C1 (racemic) [Example 36, rac-3-[(3R,4R)-1-acetyl-3-hydroxypiperidin-4-yl]-6-[(6-chloropyridin-3-yl)methyl]benzo[h]quinazolin-4(3H)-one]"
2,90,"C[S+]([O-])c1ccc(Cc2cc3c(=O)n([C@H]4CCOC[C@@H]4O)cnc3c3ccccc23)cn1 (stereo partly drawn) [Example 17, 3-[(3R,4S)-3-Hydroxytetrahydro-2H-pyran-4-yl]-6-{[6-(methylsulfinyl)pyridine-3-yl]methyl}benzo[h]quinazolin-4(3H)-one]"
3,76,"CC(C)(O)c1ccc(Cc2cc3c(=O)n([C@H]4CCOC[C@@H]4O)cnc3c3ccccc23)cn1 [Example 11, 6-{[6-(1-Hydroxy-1-methylethyl)pyridine-3-yl]methyl}-3-[(3R,4S)-3-hydroxytetrahydro-2H-pyran-4-yl]benzo[h]quinazolin-4(3H)-one]"
4,30,"CC(=O)c1ccc(Cc2cc3c(=O)n([C@H]4CCOC[C@@H]4O)cnc3c3ccccc23)cn1 [Example 10, 6-[(6-Acetylpyridin-3-yl)methyl]-3-[(3R,4S)-3-hydroxytetrahydro-2H-pyran-4-yl]benzo[h]quinazolin-4(3H)-one]"
5,21,"O=c1c2cc(Cc3ccc(N4CCOCC4)cc3)c3ccccc3c2ncn1[C@H]1CCOC[C@@H]1O [Example 12, 3-[(3R,4S)-3-Hydroxytetrahydro-2H-pyran-4-yl]-6-(4-morpholin-4-ylbenzyl)benzo[h]quinazolin-4(3H)-one]"
6,15,"Cc1ccc(Cc2cc3c(=O)n([C@H]4CCOC[C@@H]4O)cnc3c3ccccc23)cn1 [Example 3, 3-[(3R,4S)-3-Hydroxytetrahydro-2H-pyran-4-yl]-6-[(6-methylpyridin-3-yl)methyl]benzo[h]quinazolin-4(3H)-one]"
7,14,"CSc1ccc(Cc2cc3c(=O)n([C@H]4CCOC[C@@H]4O)cnc3c3ccccc23)cn1 [Example 2, 3-[(3R,4S)-3-Hydroxytetrahydro-2H-pyran-4-yl]-6-{[(6-methylthio)pyridin-3-yl)methyl]benzo[h]quinazolin-4(3H)-one]"
8,13,"O=c1c2cc(Cc3ccc(Cl)nc3)c3ccccc3c2ncn1[C@H]1CCOC[C@@H]1O [Example 1, 6-[(6-Chloropyridin-3-yl)methyl]-3-[(3R,4S)-3-hydroxytetrahydro-2H-pyran-4-yl]benzo[h]quinazolin-4(3H)-one]"
9,5.8,"O=c1c2cc(Cc3ccc(-c4cscn4)nc3)c3ccccc3c2ncn1[C@H]1CCOC[C@@H]1O [Example 13, 3-[(3R,4S)-3-Hydroxytetrahydro-2H-pyran-4-yl]-6-{[6-(1,3-thiazol-4-yl)pyridine-3-yl]methyl}benzo[h]quinazolin-4(3H)-one]"
